According to patent publication US5661175A, “Hemiasterlin and geodiamolide TA” (priority 1995, dated 1997):
Converted amounts (≈) assume the structure as drawn.

Experiments:
MEL-28 = assay: Antitumor cell screening, MEL-28 growth inhibition (Crystal Violet); type: cell-based; conditions: Homo sapiens, SK-MEL-28, 72 h; MEL28; three days incubation at 37° C.; approximate IC50
Protocol: (§1) Cells were maintained in logarithmic phase of growth in Eagle's Minimum Essential Medium, with Earle's Balanced Salts, with 2.0 mM L-Glutamine, with non-essential Amino Acids, without Sodium Bicarbonate (EMEM/NEAA); supplemented with 10% Fetal Calf Serum (FCS), 10^-2M Sodium Bicarbonate and 0.1 g/l Penicillin-G+Streptomycin Sulfate.
(§2) A simple screening procedure has been carried out to determine and compare the antitumor activity of these compounds, using an adapted form of the method described by Bergeron et al. (1984). The antitumor cell employed have been P-388 (suspension culture of a lymphoid neoplasm from DBA/2 mouse), A-549 (monolayer culture of a human lung carcinoma), HT-29 (monolayer culture of a human colon carcinoma) and MEL-28 (monolayer culture of a human melanoma).
(§3) A-549, HT-29 and MEL-28 were seeded into 16 mm wells at 2×10^4 cells per well in 1 ml aliquots of MEM 10FCS containing the indicated concentration of drug. A separate set of cultures without drug was seeded as control growth to ensure that cells remained in exponential phase of growth. All determinations were carried out in duplicate. After three days of incubation at 37° C., 10% CO2 in a 98% humid atmosphere, the wells were stained with 0.1% Crystal Violet. An approximately IC50 was determined by comparing the growth in wells with drug to the growth in wells control.

P-388 = assay: Antitumor cell screening, P-388 growth inhibition; type: cell-based, DBA/2 mouse; conditions: Mus musculus, 72 h; P388; three days incubation at 37° C.; approximate IC50
Protocol: as §1, §2
as §3, with “P-388 cells” for “A-549, HT-29 and MEL-28”, “1×10^4” for “2×10^4”, “5FCS” for “10FCS”, “an” for “the wells were stained with 0.1% Crystal Violet. An”

HT-29 = assay: Antitumor cell screening, HT-29 growth inhibition (Crystal Violet); type: cell-based; conditions: Homo sapiens, HT-29, 72 h; HT29; three days incubation at 37° C.; approximate IC50
Protocol: as §1, §2, §3

A-549 = assay: Antitumor cell screening, A-549 growth inhibition (Crystal Violet); type: cell-based; conditions: Homo sapiens, 72 h; A549; three days incubation at 37° C.; approximate IC50
Protocol: as §1, §2, §3

Which IC50 (MEL-28) does the source give for `C/C1=C\C(C)CC(C)OC(=O)C(C(C)C)NC(=O)C(Cc2ccc(O)c(I)c2)N(C)C(=O)C(C)NC(=O)C(C)C1` (stereo not shown) [Compound 3, geodiamolide TA] here?
The IC50 was 0.01 µg/mL (≈ 0.0149 µM).

What about the IC50 (P-388) of the same compound?
The IC50 was 0.01 µg/mL (≈ 0.0149 µM).

And the IC50 (HT-29)?
The IC50 was 0.005 µg/mL (≈ 0.00747 µM).

And the IC50 (A-549)?
The IC50 was 0.01 µg/mL (≈ 0.0149 µM).
